The source of these data is publication PMC10253817, “Design, Pharmacological Characterization, and Molecular Docking of Minimalist Peptidomimetic Antagonists of α4β1 Integrin” (International Journal of Molecular Sciences, 2023).

A word on the IC50: it is the midpoint of a concentration-inhibition curve. In general, Ki refers to a dissociation constant, usually derived from enzyme kinetics or from competition with a known ligand.

*1 amine or outer side, *2 acyl side, *3 side chain or, on linkers, in order; H or OH if unused. Where a SMILES comes first, the peptide text is derived from it. [ ]: non-standard residue; d: D form. The star is where a group is joined. X1 = O=C(Cc1ccc(N[*:1])cc1)[*:2]; NH(2-Me-phenyl) = Cc1ccccc1N*; CO = O=C([*:1])[*:2]

The test system of series [1] is antigen-induced airway hyper-responsiveness. Also on record: method as in PMID 10934094. The conditions noted are these: allergic sheep; cited from earlier work.
On the set-up of series [2]: method as in PMID 17523052, PMID 11682211. Conditions: plasma; heparinized blood; homogenates of rat liver, lungs, and intestines; cited from earlier work.
On the set-up of series [3]: method as in PMID 12086484. The conditions noted are these: cited from earlier work.
Series [4] deals with T1, α4β1 integrin (Homo sapiens, UniProt P05556+P13612).
T1 construct: Jurkat E6.1 cell line, which endogenously expresses α4β1 integrin; host or cells: Jurkat E6.1
T1 sequence (P13612 34-1032): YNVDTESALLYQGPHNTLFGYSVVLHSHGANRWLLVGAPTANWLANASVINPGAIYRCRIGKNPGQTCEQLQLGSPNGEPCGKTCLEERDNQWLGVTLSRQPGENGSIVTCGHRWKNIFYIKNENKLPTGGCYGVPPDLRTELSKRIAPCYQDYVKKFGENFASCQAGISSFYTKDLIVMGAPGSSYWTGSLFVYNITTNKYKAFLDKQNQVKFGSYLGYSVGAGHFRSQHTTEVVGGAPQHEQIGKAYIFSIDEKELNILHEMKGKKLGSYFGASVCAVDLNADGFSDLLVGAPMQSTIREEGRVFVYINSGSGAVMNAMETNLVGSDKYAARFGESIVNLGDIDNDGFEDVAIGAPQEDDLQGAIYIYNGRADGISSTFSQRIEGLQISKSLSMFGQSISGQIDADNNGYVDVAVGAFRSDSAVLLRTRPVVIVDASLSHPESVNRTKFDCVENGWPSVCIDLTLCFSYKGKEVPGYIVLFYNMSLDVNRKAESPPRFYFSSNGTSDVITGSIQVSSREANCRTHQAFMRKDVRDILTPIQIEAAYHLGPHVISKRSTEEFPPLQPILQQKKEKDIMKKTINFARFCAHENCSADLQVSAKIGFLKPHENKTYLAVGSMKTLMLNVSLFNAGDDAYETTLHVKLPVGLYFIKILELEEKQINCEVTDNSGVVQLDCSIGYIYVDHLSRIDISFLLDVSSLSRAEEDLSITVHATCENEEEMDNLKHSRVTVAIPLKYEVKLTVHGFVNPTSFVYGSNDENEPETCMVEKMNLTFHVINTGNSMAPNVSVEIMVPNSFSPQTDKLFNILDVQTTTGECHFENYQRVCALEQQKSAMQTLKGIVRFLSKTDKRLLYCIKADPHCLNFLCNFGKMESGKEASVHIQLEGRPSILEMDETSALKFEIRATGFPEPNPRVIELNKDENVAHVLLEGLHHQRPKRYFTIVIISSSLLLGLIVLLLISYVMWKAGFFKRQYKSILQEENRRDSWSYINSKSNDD
T1 sequence (P05556 21-798): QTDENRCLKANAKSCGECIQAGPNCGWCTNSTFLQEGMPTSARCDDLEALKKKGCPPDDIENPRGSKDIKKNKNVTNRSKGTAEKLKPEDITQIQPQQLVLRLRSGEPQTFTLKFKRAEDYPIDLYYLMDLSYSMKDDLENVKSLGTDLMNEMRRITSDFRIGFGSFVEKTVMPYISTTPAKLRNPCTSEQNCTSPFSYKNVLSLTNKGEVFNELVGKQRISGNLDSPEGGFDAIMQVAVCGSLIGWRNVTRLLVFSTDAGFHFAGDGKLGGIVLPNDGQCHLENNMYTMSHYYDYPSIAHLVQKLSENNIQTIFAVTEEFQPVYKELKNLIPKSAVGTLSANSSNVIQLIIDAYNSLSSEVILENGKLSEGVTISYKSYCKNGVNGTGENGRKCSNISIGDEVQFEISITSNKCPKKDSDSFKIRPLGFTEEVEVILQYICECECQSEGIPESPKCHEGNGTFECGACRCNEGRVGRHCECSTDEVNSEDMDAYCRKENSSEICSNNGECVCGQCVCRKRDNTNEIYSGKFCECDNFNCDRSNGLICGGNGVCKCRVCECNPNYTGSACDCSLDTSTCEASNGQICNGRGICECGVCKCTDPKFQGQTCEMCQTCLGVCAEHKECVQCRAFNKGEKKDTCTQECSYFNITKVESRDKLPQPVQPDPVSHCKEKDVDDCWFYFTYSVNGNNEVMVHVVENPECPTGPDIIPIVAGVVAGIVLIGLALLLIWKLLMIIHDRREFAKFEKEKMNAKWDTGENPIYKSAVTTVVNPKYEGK
Put plainly: α4β1 integrin-mediated Jurkat E6.1 cell adhesion to FN. Format: cell-based. Conditions: Jurkat E6.1 cell adhesion to FN (10 μg/mL); antag. = reduced cell adhesion; mean ± SD. How it is done:
To investigate the ability of the new peptides to modulate integrin-mediated cell adhesion, we employed cell adhesion assays using a Jurkat E6.1 cell line, which endogenously expresses α4β1 integrin and the natural ligand FN. […] On the contrary, ligands able to increase cell adhesion are defined as agonists.
(§1) The assays were performed as previously described. Briefly, regarding adhesion assays on Jurkat E6.1 or HL-60 cells, black 96-well plates (Corning Costar) were coated overnight at 4 °C with FN or Fg (10 μg/mL) or VCAM-1 (2 μg/mL) in order to investigate α4β1 integrin-mediated cell adhesion. To avoid any kind of unspecific binding, plates were incubated with 100 μL/well of blocking solution (1% BSA in HBSS) for 30 min at 37 °C. Cells were counted, stained with the CellTracker green CMFDA (12.5 μM, 30 min at 37 °C, Life Technologies Italia, Milan, Italy) and after three washes, were preincubated with increasing concentrations of new compounds (10^−10–10^−4 M) or with the vehicle (methanol) for 30 min at 37 °C.
(§2) Then, cells were plated (500,000/well) on coated wells and incubated for 30 min at 37 °C. Afterwards nonadherent cells were removed via washing with a blocking solution, and the remaining adhered cells were lysed with 0.5% Triton X-100 in PBS (30 min at 4 °C). Green fluorescence was measured (Ex485 nm/Em535 nm) using an EnSpire Multimode Plate Reader (PerkinElmer, Waltham, MA, USA).
(§3) In both types of adhesion assay, the number of adherent cells was determined via comparison with a standard curve made in the same plate. Experiments were carried out in quadruplicate and repeated at least three times. Data analysis and EC50 or IC50 values were calculated using GraphPad Prism 9.5.1 (GraphPad Software, San Diego, CA, USA).

The target in series [5] is T2, α5β1 integrin (Homo sapiens, UniProt P05556+P08648).
T2 construct: K562 cells, mainly expressing α5β1, which shares a β1 subunit with the heterodimer α4β1; host or cells: K562 (PMA-treated)
T2 sequence (P08648 42-894 limits assumed): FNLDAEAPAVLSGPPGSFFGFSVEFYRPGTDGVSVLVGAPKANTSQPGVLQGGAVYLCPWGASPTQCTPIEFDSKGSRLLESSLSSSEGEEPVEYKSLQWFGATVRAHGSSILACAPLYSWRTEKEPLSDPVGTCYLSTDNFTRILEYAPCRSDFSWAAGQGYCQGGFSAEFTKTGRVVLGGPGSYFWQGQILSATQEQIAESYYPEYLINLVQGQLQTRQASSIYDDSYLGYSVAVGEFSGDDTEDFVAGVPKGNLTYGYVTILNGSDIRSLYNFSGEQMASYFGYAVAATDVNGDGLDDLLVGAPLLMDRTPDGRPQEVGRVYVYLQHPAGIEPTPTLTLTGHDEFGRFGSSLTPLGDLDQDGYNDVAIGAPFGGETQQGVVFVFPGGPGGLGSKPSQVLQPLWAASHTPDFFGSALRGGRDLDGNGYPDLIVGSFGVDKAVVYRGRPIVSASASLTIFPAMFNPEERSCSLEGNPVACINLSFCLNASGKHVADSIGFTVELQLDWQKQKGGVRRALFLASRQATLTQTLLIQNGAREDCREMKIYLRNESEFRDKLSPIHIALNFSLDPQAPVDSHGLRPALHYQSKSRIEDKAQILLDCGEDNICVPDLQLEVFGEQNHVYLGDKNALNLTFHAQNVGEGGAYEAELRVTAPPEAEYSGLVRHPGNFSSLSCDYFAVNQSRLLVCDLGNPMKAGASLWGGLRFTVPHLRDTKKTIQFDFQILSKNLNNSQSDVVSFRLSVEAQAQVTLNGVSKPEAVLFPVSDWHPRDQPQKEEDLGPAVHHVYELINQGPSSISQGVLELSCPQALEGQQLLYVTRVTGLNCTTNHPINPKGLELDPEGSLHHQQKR
T2 sequence (P08648 895-1049 partner limits assumed): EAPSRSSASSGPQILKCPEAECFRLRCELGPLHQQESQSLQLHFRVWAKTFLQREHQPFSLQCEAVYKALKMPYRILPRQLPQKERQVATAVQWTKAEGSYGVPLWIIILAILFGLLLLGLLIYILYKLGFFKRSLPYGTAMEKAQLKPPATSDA
T2 sequence (P05556 21-798): as the sequence (P05556 21-798) above
The series can be described thus: α5β1 integrin-mediated K562 cell adhesion to FN. The class given is cell-based. Conditions: K562 cell adhesion to FN (10 μg/mL). The method, then:
(§4) To this purpose, the ability of the best peptidomimetics to modulate cell adhesion mediated by integrins other than α4β1 was evaluated in HL60 cells, mainly expressing the leukocyte integrin αMβ2, and on K562 cells, mainly expressing α5β1, which shares a β1 subunit with the heterodimer α4β1. […] In contrast, 13 was a moderate promoter of cell adhesion mediated by αMβ2 integrin, behaving as an agonist. Regarding α5β1 integrin, none of the peptidomimetics employed were able to modulate K562 cell adhesion, thus being shown to be completely ineffective toward α5β1 integrin. The reference compound DS-70 was ineffective toward both αMβ2 and α5β1 integrins under the same experimental conditions (Table 3).
For adhesion assays mediated by α5β1 integrin, K562 cells were pre-treated with PMA (64.85 nM, Merck Life Science, Milan, Italy) for 48 h to enhance α5β1 integrin expression. 96-well plates were coated via passive adsorption with FN (10 μg/mL) overnight at 4 °C; then, the following day, plates were blocked by adding 100 μL/well of a blocking solution (1% BSA in PBS) and incubated for 1 h at 37 °C. K562 cells were counted and preincubated with various concentrations (10^−10–10^−4 M) of the peptides or with the vehicle for 30 min at RT. Then, K562 cells were plated (50,000 cells/well) and incubated at RT for 1 h. The wells were then washed three times with 1% BSA in PBS, and 50 μL of hexosaminidase substrate was added and incubated at RT for 1 h. After the addition of 100 μL of stopping solution (50 mM glycine and 5 mM EDTA, pH 10.4), plates were read at 405 nm in an EnSpire Multimode Plate Reader.
as §3
Cell culture. Jurkat E6.1 (expressing both α4β1 and αLβ2 integrin), K562 (expressing α5β1 integrin) and HL60 (expressing α Mβ2 integrin) cell lines were purchased from ATCC (Rockville, MD, USA); these cells were routinely cultured in RPMI-1640 (Life Technologies) supplemented with 1% glutamine and 10% fetal bovine serum (FBS). Cells were grown at 37 °C under 5% CO 2 humidified atmosphere. 40 h before the adhesion assays, K562 and HL60 cells were treated with 25 nM or 40 nM phorbol 12 -myristate 13-acetate (PMA; Sigma-Aldrich), respectively, to induced cell differentiation and to increased α5β1 or αMβ2 integrin expression on cell surface (Baiula et al., 2016).
Cell adhesion assays . Concentration-response curves, obtained from cell adhesion assays performed in […]
Figure S1. […]

On the set-up of series [6]: method as in PMID 30051467, PMID 33584300. The conditions noted are these: cited from earlier work.
For series [7], the target named is T3, αMβ2 integrin (Homo sapiens, UniProt P05107+P11215).
T3 construct: HL60 cells, mainly expressing the leukocyte integrin αMβ2; host or cells: HL60 (PMA-treated)
T3 sequence (P05107 23-769, other chains not shown): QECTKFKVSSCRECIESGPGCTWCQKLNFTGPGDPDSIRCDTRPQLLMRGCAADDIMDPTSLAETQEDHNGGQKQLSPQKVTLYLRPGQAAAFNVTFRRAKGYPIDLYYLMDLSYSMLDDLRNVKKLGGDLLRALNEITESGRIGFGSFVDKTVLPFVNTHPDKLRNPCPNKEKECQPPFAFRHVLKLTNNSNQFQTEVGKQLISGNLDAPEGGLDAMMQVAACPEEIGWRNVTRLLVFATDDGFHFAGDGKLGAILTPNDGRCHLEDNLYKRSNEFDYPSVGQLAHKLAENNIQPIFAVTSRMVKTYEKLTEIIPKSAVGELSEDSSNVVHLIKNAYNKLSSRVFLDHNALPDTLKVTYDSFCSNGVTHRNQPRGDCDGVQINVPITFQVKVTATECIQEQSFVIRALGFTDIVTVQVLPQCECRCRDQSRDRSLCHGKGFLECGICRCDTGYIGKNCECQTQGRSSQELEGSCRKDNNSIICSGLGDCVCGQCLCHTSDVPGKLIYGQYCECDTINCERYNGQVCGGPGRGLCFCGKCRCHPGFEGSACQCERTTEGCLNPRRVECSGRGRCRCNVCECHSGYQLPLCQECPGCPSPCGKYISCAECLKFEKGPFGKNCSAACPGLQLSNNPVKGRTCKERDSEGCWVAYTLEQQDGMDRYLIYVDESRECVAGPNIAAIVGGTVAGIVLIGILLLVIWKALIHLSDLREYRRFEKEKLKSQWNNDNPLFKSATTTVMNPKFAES
The series can be described thus: αMβ2 integrin-mediated HL60 cell adhesion to Fg. Format: cell-based. The conditions noted are these: HL60 cell adhesion to Fg (10 μg/mL); antagonists; mean ± SD. How it is done:
as §4, §1, §2, §3
Cell culture. Jurkat E6.1 (expressing both α4β1 and αLβ2 integrin), K562 (expressing α5β1 integrin) and HL60 (expressing α Mβ2 integrin) cell lines were purchased from ATCC (Rockville, MD, USA); these cells were routinely cultured in RPMI-1640 (Life Technologies) supplemented with 1% glutamine and 10% fetal bovine serum (FBS). Cells were grown at 37 °C under 5% CO 2 humidified atmosphere. […]

Series [8] deals with T1, α4β1 integrin. The series can be described thus: α4β1 integrin-mediated Jurkat cell adhesion to VCAM-1. The class given is cell-based. Conditions: Jurkat cell adhesion to VCAM-1 (2 μg/mL); antag. = reduced cell adhesion; mean ± SD. How it is done:
as §4, §1, §2, §3

The target of series [9] is T1, α4β1 integrin. Put plainly: LDV-FITC competitive binding on intact Jurkat E6.1 cells. How it is done:
The assays were performed as previously described with the following modifications. Jurkat E6.1 cells were resuspended (50,000 cells/sample) in 0.1% BSA in a HEPES buffer (NaCl 110 mM; KCl 10 mM; Glucose 10 mM; MgCl2 1 mM; CaCl2 1.5 mM; HEPES 30 mM; pH 7.4) and pre-incubated with different concentrations (10^−11–10^−5 M) of compounds for 20–30 min at RT. Then, LDV-FITC (5 µM) was added to the cells, and they were incubated in the dark for an additional 30 min at RT. At the end of the incubation with LDV-FITC, cells were washed with 0.1% BSA in a HEPES buffer. The FITC fluorescence intensity was measured using an EnSpire Multimode Plate Reader (PerkinElmer, Waltham, MA, USA). The data were plotted as LDV-FITC specific bindings versus the concentration of the competitor, and the data were fitted to a one-site competition equation; the equilibrium dissociation constant Ki was calculated from the IC50 using the Cheng–Prusoff equation.

Series [10] has as its target T1, α4β1 integrin. The series can be described thus: HUTS-21 monoclonal antibody binding (α4β1 integrin conformation), flow cytometry. Format: cell-based. Conditions: Jurkat E6.1 cells; compounds 1–100 nM; FN 10 µg/mL; versus vehicle. An excerpt:
Integrin functions are regulated by a number of conformational changes in the protein itself. […] Conformational changes can be evaluated by using conformationally sensitive antibodies which specifically recognize epitopes exposed only in a defined structural conformation. To better depict peptidomimetics–α4β1 integrin interactions, we employed PE-conjugated HUTS-21 mAb that recognizes an epitope mapped to the hybrid domain of the β1 subunit.
Conversely, antagonists 3, 8, and 13, although binding to α4β1 integrin as previously shown, were not able to induce any conformational rearrangement, showing very low binding of HUTS-21 mAb.
Flow cytometry analysis was performed as previously described, with the following modifications. Jurkat E6.1 cells were resuspended in 1% BSA in HBSS (50,000 cells/sample); then, FN (10 μg/mL) and two concentrations of the best peptidomimetics (100–1 nM) were added to the cells for 30 min. Thereafter, phycoerythrin (PE)-conjugated, conformational-sensitive HUTS-21 mAb (PE mouse anti-human CD29 antibody, Becton Dickinson Italia, Milan, Italy) (20 μL/sample) was added for 45 min at room temperature; after two washes, Jurkat E6.1 cells were suspended in PBS, and 10,000 cells/sample were acquired in a Guava®EasyCyte Flow Cytometer. The data are presented as the mean fluorescence intensity (MFI). Data were normalized with the relative fluorescence for nonspecific binding evaluated by exposing the cells to an isotype control mAb set to 0.
Background: A flow cytometer gives signals particle by particle.

As to `Cc1ccccc1NC(=O)Nc1ccc(CC(=O)N[C@@H](CC(C)C)C(=O)N[C@@H](CC(=O)O)C(=O)N[C@H](C(=O)N2CCC[C@H]2C(=O)O)C(C)C)cc1` [BIO1211, MPUPA-Leu-Asp-Val-ProOH] ({NH(2-Me-phenyl)-CO}-[X1]LDVP-OH), the antigen-induced airway hyper-responsiveness result in series [1] was “capable of inhibiting”. For the same compound, the “stability in a biological environment” value in series [2] is given as “scarcely stable”. The clearance in vivo entry in series [3] is “rapid clearance”.

In turn, `Cc1ccccc1NC(=O)Nc1ccc(CNC(=O)[C@H]2CCN(C(=O)CC(=O)O)C2)cc1` [DS-23, reference compound] returned an IC50 in series [4] of 0.051 µM.

For the compound `Cc1ccccc1NC(=O)Nc1ccc(CC(=O)N2CC[C@H](C(=O)NCC(=O)O)C2)cc1` [DS-70, MPUPA-β^2Pro-Gly, reference compound], the concentration for half-maximal inhibition (IC50) in series [4] was 0.0043 µM; in series [5], more than 5 µM; in series [7], more than 5 µM; in series [8], 0.00504 µM. Further, in series [6], the “stability in mouse serum” value is recorded as “noteworthy stability”. In series [9] (intact Jurkat E6.1 cells vs. LDV-FITC, mean ± SD), this compound came in with a Ki of 0.00094 ± 0.00032 µM.

In the case of `Cc1ccccc1NC(=O)Nc1ccc(CC(=O)NC[C@H](C)C(=O)NCC(=O)O)cc1` [compound 1], the “receptor affinity (in words)” value in [9] (α4β1 integrin) was “complete lack of receptor affinity”.

`Cc1ccccc1NC(=O)Nc1ccc(CNC(=O)[C@H](C)CNC(=O)CC(=O)O)cc1` [compound 9] had a concentration for half-maximal inhibition (IC50) in series [4] of more than 5 µM.

Consider `Cc1ccccc1NC(=O)Nc1ccc(CNC(=O)[C@@H](C)CNC(=O)CC(=O)O)cc1` [compound 10], for which the IC50 in series [4] is more than 5 µM.

In the case of `CC(=O)N[C@@H](CNC(=O)CC(=O)O)C(=O)NCc1ccc(NC(=O)Nc2ccccc2C)cc1` [compound 11], the half-maximal inhibitory concentration (IC50) in [4] was more than 5 µM.

`CC(=O)N[C@H](CNC(=O)CC(=O)O)C(=O)NCc1ccc(NC(=O)Nc2ccccc2C)cc1` [compound 12] had a 50% inhibitory concentration (IC50) in [4] of more than 5 µM.

Compound `Cc1ccccc1NC(=O)Nc1ccc(CNC(=O)C[C@H](C)NC(=O)CC(=O)O)cc1` [compound 14] returned a half-inhibitory concentration (IC50) in series [4] of more than 5 µM.

`CCCNC(=O)[C@H](CC(=O)NCc1ccc(NC(=O)Nc2ccccc2C)cc1)NC(=O)CC(=O)O` [compound 15] came in with an IC50 in series [4] of more than 5 µM.

In turn, `CCCNC(=O)[C@@H](CC(=O)NCc1ccc(NC(=O)Nc2ccccc2C)cc1)NC(=O)CC(=O)O` [compound 16] gave an IC50 in series [4] of more than 5 µM.

Regarding fibronectin [FN], the “binding of HUTS-21 mAb (MFI)” value in series [10] is reported as “increased binding of the HUTS-21 mAb”.
